Data reported in US5137811A, “Method for diagnosing periodontal diseases with a substrate specific for aminopeptidase activity of periodontopathic bacteria” (Sunstar Kabushiki Kaisha, priority 1986, dated 1992).
Where a SMILES comes first, the peptide text is derived from it. The star is where a group is joined. βNA = c1ccc2cc(N*)ccc2c1; Bz = O=C(c1ccccc1)*

Experiments:
[1] = test system: B. gingivalis; assay: Hydrolytic activity of cell suspension, substrates alone or in combination (Experiment 3); type: cell-based; conditions: five strains, Table 3
Procedure: (§1) The strains of Treponema were anaerobically cultivated using TYGVS media at 37° C. for 7 days, while other bacterial strains were cultivated using brain heart infusion broth at 37° C. for 48 to 72 hours. Each culture was diluted to obtain a bacterial cell suspension, the absorption at 660 nm of which was 1.0.
(§2) Substrate compounds for aminopeptidase enzyme having various color developing groups derived from β-naphthylamine were dissolved in 0.1M Tris-HCl buffer (pH 7.0) at the concentration of 0.2 mM to obtain substrate solutions.
(§3) To the substrate solution (1.5 ml) was added the above cell suspension (0.3 ml) and reacted at 37° C. for 60 minutes. After completion of the reaction, a coloring reagent [prepared by dissolving diazonium salt of Garnet GBC in 1M acetate buffer (containing 10% Tween 20, pH: 4.2) at the concentration of 0.5 mg/ml] was added and, after 15 minutes, the absorption at 525 nm was determined with a spectrophotometer.
(§4) On the basis of the average amount of released β-naphthylamine in each strain, the hydrolytic activity was expressed as follows: […]
(§5) According to the same manner as described in Experiment 1, periodontopathic bacteria specific aminopeptidase activity was tested by using four strains of Treponema denticola, five strains of B. gingivalis, four strains of Actinobacillus actinomycetemcomitans, two strains of Actinomyces israelli and three strains of Fusobacterium nucleatum. Abbreviations in Table 3 are the same as those in Tables 1 and 2. Hydrolytic activity "+++" means "40≤release amount<80 nmol/ml" and "++++" means "release amount≥80 nmol/ml".

[2] = test system: Treponema denticola; assay: as above; type: cell-based; conditions: four strains, Table 3
Procedure: as §1, §2, §3, §4, §5

[3] = test system: Actinomyces israelli; assay: as above; type: cell-based; conditions: two strains, Table 3
Procedure: as §1, §2, §3, §4, §5

[4] = test system: Fusobacterium nucleatum; assay: as above; type: cell-based; conditions: three strains, Table 3
Procedure: as §1, §2, §3, §4, §5

[5] = test system: Actinobacillus actinomycetemcomitans; assay: as above; type: cell-based; conditions: four strains, Table 3
Procedure: as §1, §2, §3, §4, §5

[6] = test system: Treponema denticola; assay: Hydrolytic activity of oral anaerobe cell suspension on aminopeptidase substrates (Experiment 1); type: cell-based; conditions: four strains, substrate 0.2 mM, pH 7.0, 37° C., 60 minutes, Table 1
Procedure: (§6) Oral anaerobes, i.e., four strains of Treponema denticola, five strains of B. gingivalis, four strains of Actinobacillus actinomycetemcomitans, four strains of Capnocytophaga sp. and three strains of Fusobacterium nucleatum were tested for hydrolytic activity to the substrate of aminopeptidase enzyme as follows.
as §1, §2, §3, §4

[7] = test system: Fusobacterium nucleatum; assay: as above; type: cell-based; conditions: three strains, substrate 0.2 mM, pH 7.0, 37° C., 60 minutes, Table 1
Procedure: as §6, §1, §2, §3, §4

[8] = test system: Bacteroides gingivalis; assay: as above; type: cell-based; conditions: five strains, substrate 0.2 mM, pH 7.0, 37° C., 60 minutes, Table 1
Procedure: as §6, §1, §2, §3, §4

[9] = test system: Actinobacillus actinomycetemcomitans; assay: as above; type: cell-based; conditions: four strains, substrate 0.2 mM, pH 7.0, 37° C., 60 minutes, Table 1
Procedure: as §6, §1, §2, §3, §4

[10] = test system: Capnocytophaga sp.; assay: as above; type: cell-based; conditions: four strains, substrate 0.2 mM, pH 7.0, 37° C., 60 minutes, Table 1
Procedure: as §6, §1, §2, §3, §4

[11] = test system: periodontopathic bacteria specific aminopeptidase activity; assay: Hydrolytic activity of gingival crevicular fluid specimens, OD525 (Experiment 6); type: biochemical
Procedure: as §2, §3
Specimens of gingival crevicular fluid were collected with paper points from five subjects who were considered to be healthy from their clinical state, six subjects with gingivitis and six subjects with periodontitis. Each specimen was dispersed in Ringer's solution (1.5 ml), and the relative amount of spirochete to total bacteria: [formula] was determined with a phase contrast microscope. Further, the Ringer's solution (0.3 ml) was tested for hydrolytic activity using the substrate solution prepared in the same manner as described in Experiment 1. As substrates, there were used compounds of the formula [1], i.e., N-benzoylvalyl-glycyl-arginine-β-naphthylamide (BzVGR) and N-carbobenzoxy-valyl-glycyl-arginine-β-naphthylamide (CxVGR) were used.
According to the same manner as described in Experiment 4, hydrolytic activity was tested by using the compounds of the formulas and [2], i.e., glycyl-proline-βnaphthylamide (GP), N-benzoyl-arginyl-glycyl-phenylalanylproline-β-naphthylamide (BzRGFP), N-carbobenzoxy-valylglycyl-arginine-β-naphthylamide (CxVGR) and N-benzoylglycyl-arginine-β-naphthylamide (BzGR) alone or in combination. Hydrolytic activity was determined by measuring absorption at 525 nm (OD525) and expressed as follows.

| Compound | hydrolytic activity (release amount) [1] | hydrolytic activity (release amount) [2] | hydrolytic activity (release amount) [3] | hydrolytic activity (release amount) [4] | hydrolytic activity (release amount) [5] | hydrolytic activity (average amount of released β-naphthylamine) [6] | hydrolytic activity (average amount of released β-naphthylamine) [7] | hydrolytic activity (average amount of released β-naphthylamine) [8] | hydrolytic activity (average amount of released β-naphthylamine) [9] | hydrolytic activity (average amount of released β-naphthylamine) [10] | further results |
| --- | --- | --- | --- | --- | --- | --- | --- | --- | --- | --- | --- |
| N=C(N)NCCC[C@H](NC(=O)CN)C(=O)Nc1ccc2ccccc2c1 [GR, glycyl-arginine-β-naphthylamide] (H-Gly-Arg-βNA) | ++ (20 ≤release amount<40 nmol/ml) | + (10 ≤release amount<20 nmol/ml) | - (release amount<5 nmol/ml) | - (release amount<5 nmol/ml) | - (release amount<5 nmol/ml) | + (10 ≤release amount<20 nmol/ml) | - (release amount<5 nmol/ml) | ++ (20 ≤release amount<40 nmol/ml) | - (release amount<5 nmol/ml) | ± (5 ≤release amount<10 nmol/ml) | – |
| N=C(N)NCCC[C@H](NC(=O)CNC(=O)c1ccccc1)C(=O)Nc1ccc2ccccc2c1 [BzGR, N-benzoyl-glycyl-arginine-β-naphthylamide] (Bz-Gly-Arg-βNA) | +++ (40≤release amount<80 nmol/ml) | ++ (20 ≤release amount<40 nmol/ml) | - (release amount<5 nmol/ml) | - (release amount<5 nmol/ml) | - (release amount<5 nmol/ml) | ++ (20 ≤release amount<40 nmol/ml) | - (release amount<5 nmol/ml) | +++ (release amount≥40 nmol/ml) | - (release amount<5 nmol/ml) | - (release amount<5 nmol/ml) | hydrolytic activity, absorption at 525 nm (OD525) ([11]; Gingivitis subject 1 (spirochete 7.3 %)): + (0.1≤OD525 <0.2); hydrolytic activity, absorption at 525 nm (OD525) ([11]; Gingivitis subject 2 (spirochete 16.7 %)): + (0.1≤OD525 <0.2); hydrolytic activity, absorption at 525 nm (OD525) ([11]; Gingivitis subject 3 (spirochete 20.5 %)): ++ (0.2≤OD525 <0.4); hydrolytic activity, absorption at 525 nm (OD525) ([11]; Gingivitis subject 4 (spirochete 6.8 %)): - (OD525 <0.1); hydrolytic activity, absorption at 525 nm (OD525) ([11]; Gingivitis subject 5 (spirochete 7.3 %)): - (OD525 <0.1); hydrolytic activity, absorption at 525 nm (OD525) ([11]; Healthy subject 1 (spirochete 0.1 %)): - (OD525 <0.1); hydrolytic activity, absorption at 525 nm (OD525) ([11]; Healthy subject 3 (spirochete 1.1 %)): - (OD525 <0.1); hydrolytic activity, absorption at 525 nm (OD525) ([11]; Healthy subject 4 (spirochete 0.6 %)): - (OD525 <0.1); hydrolytic activity, absorption at 525 nm (OD525) ([11]; Healthy subject 5 (spirochete 1.3 %)): - (OD525 <0.1); hydrolytic activity, absorption at 525 nm (OD525) ([11]; Periodontitis subject 1 (spirochete 45.2 %)): ++ (0.2≤OD525 <0.4); hydrolytic activity, absorption at 525 nm (OD525) ([11]; Periodontitis subject 2 (spirochete 30.3 %)): ++ (0.2≤OD525 <0.4); hydrolytic activity, absorption at 525 nm (OD525) ([11]; Periodontitis subject 3 (spirochete 34.6 %)): ++ (0.2≤OD525 <0.4); hydrolytic activity, absorption at 525 nm (OD525) ([11]; Periodontitis subject 4 (spirochete 21.2 %)): ++ (0.2≤OD525 <0.4); hydrolytic activity, absorption at 525 nm (OD525) ([11]; Periodontitis subject 5 (spirochete 40.3 %)): ++ (0.2≤OD525 <0.4); hydrolytic activity, absorption at 525 nm (OD525) ([11]; Periodontitis subject 6 (spirochete 35.1 %)): ++ (0.2≤OD525 <0.4) |
